Like-named read-outs stand apart in the source and are kept apart here. No end group written: not given here.
How the values were obtained:
[1] = tested on: human embryonic kidney (HEK293) cells; test: Cytotoxicity, resazurin reduction assay; format: cell-based
Procedure: (§1) Cytotoxicity was evaluated using human embryonic kidney (HEK293) and human red blood cells (RBCs). HEK293 cells were cultured in DMEM supplemented with 10% FBS. Cells were seeded in 384-well plates and incubated with peptides for 24 h. Cell viability was assessed using the resazurin reduction assay. Hemolysis assays were performed using fresh human RBCs incubated with peptides for 1 h at 37 °C.

[2] = tested on: human red blood cells (RBCs); test: Hemolysis assay; format: cell-based
Procedure: as §1

[3] = tested on: Staphylococcus aureus ATCC 43300 (MRSA); test: microbe, parasite or virus in culture; conditions: for MIC: Staphylococcus aureus, read-out: MIC against MRSA; for MIC, Sa (Table 1S): supplement Table 1S, unit not given (main-text tables: μg/mL), capital letter component 95 mg
Procedure: (§2) Antimicrobial activity was evaluated using the Community for Open Antimicrobial Drug Discovery (CO-ADD) screening platform. Minimum inhibitory concentrations (MICs) were determined against the following five bacterial strains: Escherichia coli (E. coli) ATCC 25922, Klebsiella pneumoniae ATCC 700603, Acinetobacter baumannii ATCC 19606, Pseudomonas aeruginosa ATCC 27853, and Staphylococcus aureus ATCC 43300.
(§3) Bacteria were cultured in cation-adjusted Mueller–Hinton broth (CAMHB) at 37 °C overnight. Cultures were diluted 40-fold in fresh broth and incubated at 37 °C for 1.5–3 h. Mid-log phase cultures were then diluted and added to the compound-containing plates, giving a final cell density of 5 × 10^5 CFU/mL in a total volume of 50 μL. Plates were incubated at 37 °C for 18 h without shaking.
(§4) Bacterial growth inhibition was determined by measuring the absorbance at 600 nm (OD600) using a Tecan M1000 Pro monochromator plate reader. The percentage of growth inhibition was calculated using negative (media only) and positive (bacteria without inhibitors) controls. Significance was determined by modified Z scores calculated using the median and MAD of the samples on the same plate. Samples with inhibition values above 80% and Z scores above 2.5 for either replicate were classified as active.
(§5) The fractional inhibitory concentration (FIC) index was calculated to determine synergy, additivity, or antagonism.
(§6) Colistin and VAN were used as positive bacterial inhibitor standards for Gram-negative and Gram-positive bacteria, respectively. The quality control (QC) of the assays was determined by the antimicrobial controls and the Z’ factor (using positive and negative controls).
(§7) Percentage growth inhibition was calculated using negative (media only) and positive (bacteria without inhibitors) controls. Modified Z scores were used to determine the significance of the inhibition values. Samples with inhibition values of above 80% and Z scores of above 2.5 for either replicate were classified as active. Data are presented as the mean ± standard deviation from at least three independent experiments.

[4] = tested on: Acinetobacter baumannii ATCC 19606; test: microbe, parasite or virus in culture; conditions: for MIC: Acinetobacter baumannii, ATCC19606, 18 h, read-out: MIC against Ab; for MIC, Ab (Table 1S): supplement Table 1S, unit not given (main-text tables: μg/mL), capital letter component 95 mg
Procedure: as §2, §3, §4, §5, §6, §7

[5] = tested on: Escherichia coli (E. coli) ATCC 25922; test: microbe, parasite or virus in culture; conditions: for MIC: Escherichia coli, ATCC25922, 18 h, read-out: MIC against E. coli; for MIC, Ec (Table 1S): supplement Table 1S, unit not given (main-text tables: μg/mL), capital letter component 95 mg
Procedure: as §2, §3, §4, §5, §6, §7

[6] = tested on: Pseudomonas aeruginosa ATCC 27853; test: microbe, parasite or virus in culture; conditions: for MIC: Pseudomonas aeruginosa, ATCC27853, 18 h, read-out: MIC against Pa; for MIC, Pa (Table 1S): supplement Table 1S, unit not given (main-text tables: μg/mL), capital letter component 95 mg
Procedure: as §2, §3, §4, §5, §6, §7

human cells = format: cell-based
[7] = summary in words, Table 5; earlier biophysical studies ref 20; cited from earlier work
Description: Table 5 Structure–Activity Relationships of (RW)n Peptides ^a | column: Thermal stability

[8] = tested on: Gram-positive and Gram-negative bacteria; test: Structure-activity summary: antimicrobial activity (Table 5); format: cell-based; conditions: summary in words
[9] = tested on: Klebsiella pneumoniae ATCC 700603; test: microbe, parasite or virus in culture; conditions: for MIC against Kp: ATCC 700603, 18 h; for MIC, Kp (Table 1S): supplement Table 1S, unit not given (main-text tables: μg/mL), capital letter component 95 mg, minor letter component 5 mg
Procedure: as §2, §3, §4, §5, §6, §7

[10] = S. aureus ATCC 43300, CAMHB, 5 × 10^5 CFU/mL, 37 °C, 18 h, OD600, mixtures: capital letter component 95 mg, minor letter component 5 mg

| Compound | MIC, Hk (Table 1S) [1] | MIC, Hm (Table 1S) [2] | MIC, Sa (Table 1S) ([3]; minor letter component 5 mg) | MIC, Ab (Table 1S) ([4]; minor letter component 5 mg) | MIC, Ec (Table 1S) ([5]; minor letter component 5 mg) | MIC, Pa (Table 1S) ([6]; minor letter component 5 mg) | Toxicity (human cells) | Thermal stability [7] | HEK293 cells MIC ([1]; 24 h) | RBC hemolysis MIC [2] | Antimicrobial activity [8] | MIC against MRSA ([3]; ATCC 43300, 18 h) | MIC against Ab ([4]; ATCC 19606, 18 h) | MIC against Kp [9] | MIC, Kp (Table 1S) [9] | MIC against E. coli ([5]; ATCC 25922, 18 h) | MIC against Pa ([6]; ATCC 27853, 18 h) | also measured |
| --- | --- | --- | --- | --- | --- | --- | --- | --- | --- | --- | --- | --- | --- | --- | --- | --- | --- | --- |
| CC1(C)S[C@@H]2[C@H](NC(=O)[C@H](N)c3ccccc3)C(=O)N2[C@H]1C(=O)O [AMP, ampicillin, reference compound] | > 32 µg/mL | > 32 | 32 | > 32 | 8 | > 32 |  |  |  |  |  |  |  |  |  |  |  | MIC ([3]; 18 h): 32 µg/mL; MIC [4]: > 32 µg/mL; MIC [5]: 8 µg/mL; MIC [6]: > 32 µg/mL |
| CC[C@H](C)[C@H](N)C(=O)N[C@@H](CC(C)C)C(=O)N1CCC[C@H]1C(=O)N[C@@H](Cc1c[nH]c2ccccc12)C(=O)N[C@@H](CCCCN)C(=O)N[C@@H](Cc1c[nH]c2ccccc12)C(=O)N1CCC[C@H]1C(=O)N[C@@H](Cc1c[nH]c2ccccc12)C(=O)N[C@@H](Cc1c[nH]c2ccccc12)C(=O)N1CCC[C@H]1C(=O)N[C@@H](Cc1c[nH]c2ccccc12)C(=O)N[C@@H](CCCN=C(N)N)C(=O)N[C@@H](CCCN=C(N)N)C(N)=O [Indolicidin, reference compound] |  |  |  |  |  |  |  |  |  |  |  |  |  |  |  |  |  | RBC hemolysis MIC ([2]; fresh human RBCs, 1 h, 37 °C): >32 µg/mL |
| N=C(N)NCCC[C@H](NC(=O)[C@H](Cc1c[nH]c2ccccc12)NC(=O)[C@H](CCCNC(=N)N)NC(=O)[C@H](Cc1c[nH]c2ccccc12)NC(=O)[C@H](CCCNC(=N)N)NC(=O)[C@H](Cc1c[nH]c2ccccc12)NC(=O)[C@H](CCCNC(=N)N)NC(=O)[C@H](Cc1c[nH]c2ccccc12)NC(=O)[C@H](CCCNC(=N)N)NC(=O)[C@H](Cc1c[nH]c2ccccc12)NC(=O)[C@@H](N)CCCNC(=N)N)C(=O)N[C@@H](Cc1c[nH]c2ccccc12)C(N)=O [RW6] | > 32 µg/mL | <= 0.25 | <= 0.25 | > 32 | <= 0.25 | > 32 | Moderate | High | >32 µg/mL | ≤0.25 µg/mL | High | ≤0.25 µg/mL | >32 µg/mL | >32 µg/mL | > 32 | ≤0.25 µg/mL | >32 µg/mL |  |
| CN[C@H](CC(C)C)C(=O)N[C@H]1C(=O)N[C@@H](CC(N)=O)C(=O)N[C@H]2C(=O)N[C@H]3C(=O)N[C@H](C(=O)N[C@H](C(=O)O)c4cc(O)cc(O)c4-c4cc3ccc4O)[C@H](O)c3ccc(c(Cl)c3)Oc3cc2cc(c3O[C@@H]2O[C@H](CO)[C@@H](O)[C@H](O)[C@H]2O[C@H]2C[C@](C)(N)[C@H](O)[C@H](C)O2)Oc2ccc(cc2Cl)[C@H]1O [VAN, vancomycin, reference compound] |  |  | <= 0.25 | > 32 | > 32 | > 32 |  |  |  |  |  |  |  |  | > 32 |  |  | HEK293 cytotoxic concentration ([1]; supplement Table 1S, Hk = HEK293 cytotoxicity, 24 h, resazurin, unit not given (main-text tables: μg/mL), capital 95 mg, minor letter 5 mg): > 32 µg/mL; MIC, Hm (Table 1S) ([2]; supplement Table 1S, Hm = human RBC hemolysis, 1 h, 37 °C, unit not given (main-text tables: μg/mL), capital 95 mg, minor letter 5 mg, in µg/mL): 28.69; MIC ([3]; 18 h): ≤ 0.25 µg/mL; MIC [4]: > 32 µg/mL; MIC ([9]; Klebsiella pneumoniae, ATCC700603, 18 h, read-out: MIC against Kp): > 32 µg/mL; MIC [5]: > 32 µg/mL; MIC [6]: > 32 µg/mL |
| RWRWPRWRWPRWRW-NH2 [RW6-2P] | > 32 µg/mL | > 32 | <= 0.25 | 2 | 16 | <= 0.25 |  |  | >32 µg/mL | >32 µg/mL |  | ≤0.25 µg/mL | 2 µg/mL | >32 µg/mL | > 32 | 16 µg/mL | ≤0.25 µg/mL | MIC against MRSA [3, 10]: ≤ 0.25 µg/mL |
| RWRWRWRW-NH2 [RW4] | > 32 µg/mL | > 32 | 8 | > 32 | > 32 | > 32 | Low | Low | >32 µg/mL | >32 µg/mL | Moderate | 8 µg/mL | >32 µg/mL | >32 µg/mL | > 32 |  | >32 µg/mL |  |
| RWRWRWRWRWRWRWRW-NH2 [RW8] | > 32 µg/mL | 0.4523 | 2 | 32 | 32 | > 32 | Moderate | High | >32 µg/mL | 0.4523 µg/mL | High (Gram+), Moderate (Gram−) | 2 µg/mL | 32 µg/mL | >32 µg/mL | > 32 | 32 µg/mL | >32 µg/mL |  |
| penicillin [reference compound] | > 32 µg/mL | > 32 | 8 | > 32 | 32 | > 32 |  |  |  |  |  |  |  |  |  |  |  | MIC against MRSA [3, 10]: 8 µg/mL; MIC against Ab ([4]; A. baumannii ATCC 19606, CAMHB, 5 × 10^5 CFU/mL, 37 °C, 18 h, OD600, mixtures: capital letter component 95 mg, minor letter component 5 mg): >32 µg/mL; MIC against E. coli ([5]; E. coli ATCC 25922, CAMHB, 5 × 10^5 CFU/mL, 37 °C, 18 h, OD600, mixtures: capital letter component 95 mg, minor letter component 5 mg): 32 µg/mL; MIC against Pa ([6]; P. aeruginosa ATCC 27853, CAMHB, 5 × 10^5 CFU/mL, 37 °C, 18 h, OD600, mixtures: capital letter component 95 mg, minor letter component 5 mg): >32 µg/mL |

— publication PMC11923837, “Proline-Modified (RW)n Peptides: Enhancing the Antimicrobial Efficacy and Selectivity against Multidrug-Resistant Pathogens” (ACS Omega, 2025)
